Literature values as cited in patent publication US20190275270A1, “SYSTEM AND METHOD FOR ARRESTING DEBILITATING MIGRAINE EVENTS” (priority 2018, published 2019).

Tests used:
migraine incidences = conditions: used in a preventative context
[1] = tested on: nitric oxide (NO) production; conditions: read-out: inhibits NO production, IC50
CB2 [2] = target: T1, CB2 (Homo sapiens, UniProt P34972)
CB2 [3] = target: T1, CB2; remark: listed apart in the source
CB1 [4] = target: T2, CB1 (Homo sapiens, UniProt P21554)
CB1 [5] = target: T2, CB1; remark: listed apart in the source

T1 sequence (P34972 whole entry, species assumed): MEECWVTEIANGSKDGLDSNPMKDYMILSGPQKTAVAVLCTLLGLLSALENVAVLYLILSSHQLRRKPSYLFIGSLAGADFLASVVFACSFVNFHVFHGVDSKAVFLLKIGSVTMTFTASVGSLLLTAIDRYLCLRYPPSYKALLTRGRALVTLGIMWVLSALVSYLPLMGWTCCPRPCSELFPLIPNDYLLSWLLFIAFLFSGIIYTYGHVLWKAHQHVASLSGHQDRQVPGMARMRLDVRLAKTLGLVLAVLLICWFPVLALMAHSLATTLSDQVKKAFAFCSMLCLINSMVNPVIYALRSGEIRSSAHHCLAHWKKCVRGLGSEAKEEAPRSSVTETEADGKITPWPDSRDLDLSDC
T2 sequence (P21554 whole entry, species assumed): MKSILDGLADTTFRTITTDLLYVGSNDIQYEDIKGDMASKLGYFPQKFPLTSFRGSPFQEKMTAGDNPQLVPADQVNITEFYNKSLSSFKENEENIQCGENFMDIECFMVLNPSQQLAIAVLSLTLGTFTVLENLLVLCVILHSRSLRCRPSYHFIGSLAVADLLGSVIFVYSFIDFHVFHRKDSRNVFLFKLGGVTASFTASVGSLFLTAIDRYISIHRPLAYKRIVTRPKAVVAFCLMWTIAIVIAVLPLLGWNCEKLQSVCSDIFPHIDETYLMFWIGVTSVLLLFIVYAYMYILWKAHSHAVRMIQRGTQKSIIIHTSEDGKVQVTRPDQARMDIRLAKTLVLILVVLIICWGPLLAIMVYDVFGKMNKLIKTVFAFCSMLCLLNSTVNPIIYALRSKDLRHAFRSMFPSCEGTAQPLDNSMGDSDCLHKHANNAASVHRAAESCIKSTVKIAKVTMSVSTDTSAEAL

Row | Molecule | activity at CB2 (CB2 [2]) | binding to CB2 (CB2 [3]) | binding to CB1 (CB1 [4]) | also measured
1 | C=C(C)[C@@H]1CCC(C)=C[C@H]1c1c(O)cc(CCCCC)cc1O [CBD, cannabidiol] |  |  |  | cut in migraine incidences (migraine incidences): more than 50%
2 | C=CCc1ccc(O)c(-c2cc(CC=C)ccc2O)c1 [Magnolol] | partial agonist |  |  | IC50 [1]: ~6.2 µM
3 | CCCCCCC[C@@H](C/C=C/CCC(=O)N(C)C/C(=C/Cl)C/C(=C\C(=O)N1CC(O)CC1=O)OC)OC (stereo partly drawn) [Malyngamide B] |  | moderate potencies | moderate potencies | 
4 | C=CCc1ccc(O)c(-c2ccc(O)c(CC=C)c2)c1 [honokiol] | antagonistic properties |  |  | activity at CB1 (CB1 [5]): full agonistic activity
5 | caryophyllene |  | binds | binds | 
